The numbers were not newly measured in PMC3845828 (Clinical cancer research : an official journal of the …, 2012), which cites them from elsewhere.

The test system of one data set is HMGB-1 binding to RAGE. Particulars: in vitro; ref [8].
The subject of a further data set is RAGE / S100P. The note with it: ref [15].
For another data set, the system named is cancer cells. The note with it: pretreatment of cancer cells in vitro, experimental in vivo model; ref [8].

With “HMGB-1-derived peptide: peptide consisting of residues 150–183 of HMGB-1 (end of the B-box and its linker to the acidic tail) (KLKEKYEKDIAAYRAKGKPDAAKKGVVKAEKSKK; UniProt P09429 150-183, looked up, fragment)”, in the data set on HMGB-1 binding to RAGE, the “competition with HMGB-1 binding to RAGE” value is “successfully compete with HMGB-1 binding to RAGE”. Further, in the data set with RAGE / S100P, the “binding and activation of RAGE by S100P” value was “blocked the binding and activation of RAGE by S100P”. Moreover, the “migration and metastasis of cancer cells pretreated with peptide” value in the data set with cancer cells is “successfully blocked their subsequent migration and their metastasis”.
